This is an account of results in US20260125372A1, “DYNAMIN-1-LIKE PROTEIN INHIBITORS AND USES THEREOF” (Astellas Engineered Small Molecules US, Incorporated, priority 2022, published 2026).

Each structure is given as a SMILES string.

This test deals with T1, DRP1 (Homo sapiens, UniProt O00429).
T1 construct: Human DRIP1 (UniProtID: O00429.4, residues 1-699); made in house; host or cells: Escherichia coli BL21 CodonPlus DE3
T1 sequence (O00429 1-699 isoform O00429-4): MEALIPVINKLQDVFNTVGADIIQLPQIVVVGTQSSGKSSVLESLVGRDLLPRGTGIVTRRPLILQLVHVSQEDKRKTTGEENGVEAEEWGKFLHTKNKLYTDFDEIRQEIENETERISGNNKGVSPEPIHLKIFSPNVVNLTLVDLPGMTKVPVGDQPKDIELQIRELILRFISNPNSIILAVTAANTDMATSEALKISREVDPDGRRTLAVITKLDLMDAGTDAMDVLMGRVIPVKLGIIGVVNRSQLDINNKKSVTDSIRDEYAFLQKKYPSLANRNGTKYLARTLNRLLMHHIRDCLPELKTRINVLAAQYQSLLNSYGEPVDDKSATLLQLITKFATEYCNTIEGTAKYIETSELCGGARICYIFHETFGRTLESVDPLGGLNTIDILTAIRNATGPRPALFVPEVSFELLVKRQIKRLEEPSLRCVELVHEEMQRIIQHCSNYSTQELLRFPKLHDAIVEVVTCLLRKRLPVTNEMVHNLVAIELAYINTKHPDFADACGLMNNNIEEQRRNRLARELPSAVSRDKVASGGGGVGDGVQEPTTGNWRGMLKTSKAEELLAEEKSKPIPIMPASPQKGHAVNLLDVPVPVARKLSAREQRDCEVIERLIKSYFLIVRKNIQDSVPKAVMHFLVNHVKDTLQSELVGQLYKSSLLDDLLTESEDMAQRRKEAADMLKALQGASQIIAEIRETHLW
Put plainly: AlphaLISA assay (His-DRP1 / MiD49-GST interaction). It counts as binding. To be noted: His-DRP1 200 nM, MiD49-GST 20 nM, GMP-PNP 100 uM. The method, then: Human DRIP1 (UniProtID: O00429.4, residues 1-699), and human MiD49 (UnitProtIS: Q96C03.1, residues 126-454) was cloned into a pET15b vector as an N-terminal His-tag Fusion. All constructs were transformed in Escherichia coli host strain BL21 CodonPlus DE3. Bacteria was grown in LB media with 100 μg/ml ampicillin and 34 μg/ml chloramphenicol in an orbital shaker at 37° C. until OD600 reached 0.4, at which temperature was reduced to 16° C. Recombinant protein expression was expressed for 18 hr by the addition of IPTG at OD600 of about 0.8. All cultures were spun down and bacterial pellets were used for protein purification.
For His-DRP1, the pellets were resuspended in DRP-buffer A (20 mM Tris, 500 KCl, 1.89 β-ME, pH 8.0) and protease inhibitor cocktail (Roche), followed by cell disruption by sonication (400 W, pulse 3 sec on, 3 sec off, total 20 min). The lysate was centrifuged at 20,000 g and then supernatant applied to a preequilibrated Ni-NTA column with DRP-buffer A. The column was extensively washed with buffer A containing 50 mM imidazole. Purified His-DRP1 was eluted with DRP-buffer A containing 250 mM imidazole and dialyzed overnight at 4° C. (18 kDa cutoff) against DRP-buffer A to remove imidazole. For AlphaLISA, the His tag was retained on DRP1 full-length.
For MiD49-GST, the bacterial pellets were resuspended and sonicated in MID lysis buffer (25 mM Tris-HCl, pH 7.5, 500 mM NaCl, 5% glycerol, 1 mM TCEP, and 0.5% CHAPS). The lysate was pre-cleared at 20,300 g before applying to a glutathione column. Unbound proteins were washed using MID-buffer A (25 mM Tris-HCl, pH 7.5, 300 mM NaCl, 5% glycerol, 1 mM TCEP) and MID-buffer B (25 mM Tris-HCl, pH 7.5, 300 mM NaCl, 5% glycerol, 1 mM TCEP, 1 mM GSH). The protein was eluted with MID-buffer C (25 mM Tris-HCl, pH 7.5, 300 mM NaCl, 5% glycerol, 1 mM TCEP, 10 mM GSH). The target protein was concentrated in the ultra-filtration tube with MW cutoff 30 kDa and further purified by size-exclusion chromatography on a Superdex-200 column (GE Healthcare) in buffer A. Fractions containing MiD49-GST (126-454) were pooled, concentrated, flash-frozen as single-use aliquots in liquid nitrogen and stored at −80° C.
A total of 100 nl of compounds were plated in a 384-well AlphaPlate (PerkinElmer, Waltham, MA) at concentrations 100 uM to […] in DMSO (dilution by 3.165 for 11 concentration levels). Recombinant His-DRP1 (200 nM), MiD49-GST (20 nM), and GMP-PNP (100 uM) were mixed in assay buffer (PBS with 1.5% BSA, 1 mM DTT). Five microliters of the protein mixture were added to the plate and incubate at room temperature for 30 min. Glutathione donor beads and nickel chelate acceptor beads were diluted and mixed in assay buffer to obtain 40 μg/ml of each bead. Five microliters of the mixed beads were added to each well on the microplate leading to a final bead concentration of 20 µg/ml per well. The sealed plate was incubated at room temperature for 60 min and protected from light. The AlphaLISA signal was detected with an EnVision Multilabel Reader (excitation at 680 and emission 615 nm). GraphPad Prism was used to calculate the IC50 by applying sigmoidal dose-response fit (variable slope).
For the compound `O=C(Nc1ccc2nc(-c3cncs3)cc(OCCO)c2c1)C(F)(F)F` [Example 10, 2,2,2-trifluoro-N-(4-(2-hydroxyethoxy)-2-(thiazol-5-yl)quinolin-6-yl)acetamide], the IC50 lay within 1000 to 10000 nM.
Take `COCCOc1cc(-c2cncs2)nc2ccc(NC(=O)C3(OC)CC3)cc12` [Example 29, 1-methoxy-N-(4-(2-methoxyethoxy)-2-(thiazol-5-yl)quinolin-6-yl)cyclopropane-1-carboxamide]: the half-maximal inhibitory concentration (IC50) is above 10000 nM.
With `COCC(C)Oc1cc(-c2cncs2)nc2ccc(NC(=O)C3COC3)cc12` (stereo not drawn) [Example 38, N-(4-((1-methoxypropan-2-yl)oxy)-2-(thiazol-5-yl)quinolin-6-yl)oxetane-3-carboxamide], the IC50 was below 500 nM.
For `Cc1cn(-c2cc(OC3CC3)c3cc(NC(=O)C4COC4)ccc3n2)cn1` [Example 43, N-(4-cyclopropoxy-2-(4-methyl-1H-imidazol-1-yl)quinolin-6-yl)oxetane-3-carboxamide], the half-inhibitory concentration (IC50) was 1000 to 10000 nM.
The compound `CCOc1cc(-c2cnc(C)s2)nc2ccc(NC(=O)C3COC3)cc12` [Example 6, N-(4-ethoxy-2-(2-methylthiazol-5-yl)quinolin-6-yl) oxetane-3-carboxamide] returned an IC50 below 500 nM.
The compound `O=C(Nc1ccc2nc(-n3ccnc3)cc(OCCO)c2c1)C1COC1` [Example 42, N-(4-(2-hydroxyethoxy)-2-(1H-imidazol-1-yl)quinolin-6-yl)oxetane-3-carboxamide] yielded a half-maximal inhibitory concentration (IC50) of 1000 to 10000 nM.
As for `COC[C@@H](C)Oc1cc(-c2cncs2)nc2ccc(NC(=O)C3COC3)cc12` [Example 52, (R)—N-(4-((1-methoxypropan-2-yl)oxy)-2-(thiazol-5-yl)quinolin-6-yl)oxetane-3-carboxamide], the IC50 lay in the range of 1000 to 10000 nM.
As to `COCCOc1cc(-c2cncs2)nc2ccc(NC(=O)C3CC3C)cc12` (stereo not drawn) [Example 18, N-(4-(2-methoxyethoxy)-2-(thiazol-5-yl)quinolin-6-yl)-2-methylcyclopropane-1-carboxamide], the 50% inhibitory concentration (IC50) is below 500 nM.
The compound `COCCOc1cc(-c2cncs2)nc2ccc(NC(=O)C(F)(F)CO)cc12` [Example 27, 2,2-difluoro-3-hydroxy-N-(4-(2-methoxyethoxy)-2-(thiazol-5-yl)quinolin-6-yl)propanamide] registered a concentration for half-maximal inhibition (IC50) of 500 to 1000 nM.
The compound `COCCOc1cc(-c2cncs2)nc2ccc(NC(=O)[C@@H](C)OC)cc12` [Example 37, (R)-2-methoxy-N-(4-(2-methoxyethoxy)-2-(thiazol-5-yl)quinolin-6-yl)propanamide] returned an IC50 below 500 nM.
With `COC[C@@H](C)Oc1cc(-c2cncs2)nc2ccc(NC(=O)[C@H](C)OC)cc12` [Example 51, (S)-2-methoxy-N-(4-(((R)-1-methoxypropan-2-yl)oxy)-2-(thiazol-5-yl)quinolin-6-yl)propanamide], the IC50 was above 10000 nM.
`COC[C@H](C)Oc1cc(-c2cncs2)nc2ccc(NC(=O)[C@H](C)OC)cc12` [Example 50, (S)-2-methoxy-N-(4-(((S)-1-methoxypropan-2-yl)oxy)-2-(thiazol-5-yl)quinolin-6-yl)propanamide]: the IC50 fell in the range of 1000 to 10000 nM.
As to `COCCOc1cc(-c2cncs2)nc2ccc(NC(=O)C3CC(F)(F)C3)cc12` [Example 30, 3,3-difluoro-N-(4-(2-methoxyethoxy)-2-(thiazol-5-yl)quinolin-6-yl)cyclobutane-1-carboxamide], the IC50 was in the range of 1000 to 10000 nM.
The compound `CCCOC(C)C(=O)Nc1ccc2nc(-c3cncs3)cc(OCCOC)c2c1` (stereo not drawn) [Example 25, N-(4-(2-methoxyethoxy)-2-(thiazol-5-yl)quinolin-6-yl)-2-propoxypropanamide] registered an IC50 below 500 nM.
`CCOc1cc(-n2cnc(C)c2)nc2c(C)cc(NC(=O)C3COC3)cc12` [Example 54, N-(4-ethoxy-8-methyl-2-(4-methyl-1H-imidazol-1-yl)quinolin-6-yl)oxetane-3-carboxamide] showed a concentration for half-maximal inhibition (IC50) of 1000 to 10000 nM.
The figure for `COCCOc1cc(-c2cncs2)nc2ccc(NC(=O)C(C)OC)cc12` (stereo not drawn) [Example 22, 2-methoxy-N-(4-(2-methoxyethoxy)-2-(thiazol-5-yl)quinolin-6-yl)propanamide] is below 500 nM; for `COc1cc(-c2cncs2)nc2ccc(NC(=O)C3COC3)cc12` [Example 5, N-(4-methoxy-2-(thiazol-5-yl)quinolin-6-yl) oxetane-3-carboxamide] it is 500 to 1000 nM.
`COCCOc1cc(-c2cncs2)nc2ccc(NC(=O)[C@@H](C)O)cc12` [Example 15, (R)-2-hydroxy-N-(4-(2-methoxyethoxy)-2-(thiazol-5-yl)quinolin-6-yl)propanamide] yielded an IC50 of 1000 to 10000 nM.
The compound `COCCOc1cc(-c2cncs2)nc2ccc(NC(=O)[C@H]3C[C@H](O)C3)cc12` [Example 17, trans-3-hydroxy-N-(4-(2-methoxyethoxy)-2-(thiazol-5-yl)quinolin-6-yl)cyclobutane-1-carboxamide] came in with an IC50 below 500 nM.
The compound `COCCOc1cc(-c2cncs2)nc2ccc(NC(=O)C3CC3C(F)(F)F)cc12` (stereo not drawn) [Example 20, N-(4-(2-methoxyethoxy)-2-(thiazol-5-yl)quinolin-6-yl)-2-(trifluoromethyl)cyclopropane-1-carboxamide] displayed a concentration for half-maximal inhibition (IC50) of 1000 to 10000 nM.
With `COCCOc1cc(-c2cncs2)nc2ccc(NC(=O)C(C)C#N)cc12` (stereo not drawn) [Example 28, 2-cyano-N-(4-(2-methoxyethoxy)-2-(thiazol-5-yl)quinolin-6-yl)propanamide], the half-inhibitory concentration (IC50) is below 500 nM.
Compound `CCOc1cc(-c2cnc(OC)s2)nc2ccc(NC(=O)C3COC3)cc12` [Example 7, N-(4-ethoxy-2-(2-methoxythiazol-5-yl)quinolin-6-yl) oxetane-3-carboxamide] had an IC50 below 500 nM.
In turn, `COCCOc1cc(-c2cncs2)nc2ccc(NC(=O)CCOC)cc12` [Example 24, 3-methoxy-N-(4-(2-methoxyethoxy)-2-(thiazol-5-yl)quinolin-6-yl)propanamide] yielded a concentration for half-maximal inhibition (IC50) of 500 to 1000 nM.
`COCC(C)(C)Oc1cc(-c2cncs2)nc2ccc(NC(=O)C3COC3)cc12` [Example 39, N-(4-((1-methoxy-2-methylpropan-2-yl)oxy)-2-(thiazol-5-yl)quinolin-6-yl)oxetane-3-carboxamide] yielded a half-maximal inhibitory concentration (IC50) of 1000 to 10000 nM.

What is called IC50 is the concentration that gives 50% inhibition. A low value points to greater potency.
